One may read the pIC50 as the negative decadic logarithm of the IC50, by convention in mol/L.

Data on 28 compounds can be found in patent US20110218189A1, “PYRROLO[2,3-d]PYRIMIDIN-2-YL-AMINE DERIVATIVES AS PKC-THETA INHIBITORS” (N.V. ORGANON, priority 2008, published 2011).

Structures are written as SMILES. pIC50: −log10 of the molar value.

T1 sequence (Q04759 whole entry): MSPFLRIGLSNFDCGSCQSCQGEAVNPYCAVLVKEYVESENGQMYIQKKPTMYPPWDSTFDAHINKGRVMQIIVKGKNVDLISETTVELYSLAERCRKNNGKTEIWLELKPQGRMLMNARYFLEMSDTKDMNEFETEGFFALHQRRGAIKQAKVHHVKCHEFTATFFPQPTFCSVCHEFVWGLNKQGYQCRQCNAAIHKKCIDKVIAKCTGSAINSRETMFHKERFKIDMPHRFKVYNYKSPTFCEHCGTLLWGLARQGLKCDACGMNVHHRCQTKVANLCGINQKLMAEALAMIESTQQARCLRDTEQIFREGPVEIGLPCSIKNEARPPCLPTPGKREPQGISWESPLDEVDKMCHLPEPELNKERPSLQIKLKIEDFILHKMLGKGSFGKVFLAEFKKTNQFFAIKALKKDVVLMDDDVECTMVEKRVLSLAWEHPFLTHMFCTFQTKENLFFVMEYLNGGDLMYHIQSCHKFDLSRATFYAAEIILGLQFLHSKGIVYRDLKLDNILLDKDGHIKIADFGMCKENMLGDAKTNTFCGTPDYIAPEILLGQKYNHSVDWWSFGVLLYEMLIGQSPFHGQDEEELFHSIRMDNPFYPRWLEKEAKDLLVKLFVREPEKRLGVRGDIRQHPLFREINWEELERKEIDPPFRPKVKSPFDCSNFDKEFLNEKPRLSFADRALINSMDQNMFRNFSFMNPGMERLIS

This assay addresses T1, His-tagged human recombinant active PKC theta (Homo sapiens, UniProt Q04759).
T1 construct: His; made in house
Put plainly: IMAP fluorescence polarization assay, inhibition of PKC theta kinase activity. Particulars: ATP 10 μM, peptide substrate 50 nM, 60 minutes at 30° C.; read-out: IC50 IMAP PKCθ. It is filed as biochemical. As to the method: Inhibition of PKC theta kinase activity was measured using an Immobilized Metal for Phosphochemicals—based coupled assay (IMAP). IMAP is a homogeneous fluorescence polarization (FP) assay based on affinity capture of phosphorylated peptide substrates. IMAP uses fluorescein-labeled peptide substrates that, upon phosphorylation by a protein kinase, bind to so called IMAP nanoparticles, which are derivatized with trivalent metal complexes. Such binding causes a change in the rate of the molecular motion of the peptide, and results in an increase in the FP value observed for the fluorescein label attached to the substrate peptide. In this assay, PKC theta directly phosphorylates the fluorescein-labeled peptide substrate.
Enzymes, substrate and ATP are diluted at all steps in Kinase Reaction buffer (10 mM Tris-HCl, 10 mM MgCl2, 0.01% Tween-20, 0.05% NaN3 pH 7.2, 1 mM DTT). The final volume at the kinase reaction step of the assay in the 384-well plate is 20 μl. The concentrations presented within brackets are final concentrations. First, compounds or DMSO (1%) are added to the wells. Thereafter, peptide substrate (Pseudosubstrate LHQRRGSIKQAKVHHVK-FL, Neosystem, 50 nM) and ATP (10 μM) are added followed by the addition of the PKC theta enzyme (His-tagged human recombinant active PKC theta, 82 kDa, in-house purified, 10 ng/ml), and the mix is incubated for 60 minutes at 30° C. in the dark. Then IMAP progressive binding buffer (100% 1× buffer A, 1:400 Progressive Binding Reagent; Molecular Devices) is added followed by an incubation step of 60 minutes at room temperature in the dark. Finally, the FP signal is read.
Consider `Fc1ccc(CNc2ncc3c(F)c(-c4c(Cl)cccc4Cl)n(C[C@@H]4CCCNC4)c3n2)cc1F` [Example 7.2, (R)-6-(2,6-dichlorophenyl)-N-(3,4-difluorobenzyl)-5-fluoro-7-(piperidin-3-ylmethyl)-7H-pyrrolo[2,3-d]pyrimidin-2-amine], for which the pIC50 is over 8.00.
As to `COc1ccc(CNc2ncc3cc(-c4c(Cl)cccc4Cl)n(C[C@@H]4CCCNC4)c3n2)cc1F` [Example 2.4, (R)-6-(2,6-dichlorophenyl)-N-(3-fluoro-4-methoxybenzyl)-7-(piperidin-3-ylmethyl)-7H-pyrrolo[2,3-d]pyrimidin-2-amine], the pIC50 is over 8.00.
As to `Cc1c(-c2ccccc2)n(C[C@@H]2CCCNC2)c2nc(NCc3ccc(F)c(F)c3)ncc12` [Example 3.3, (R)—N-(3,4-difluorobenzyl)-5-methyl-6-phenyl-7-(piperidin-3-ylmethyl)-7H-pyrrolo[2,3-d]pyrimidin-2-amine], the pIC50 was 5.00 to 7.00.
Next, `Oc1ccc(-c2cc3cnc(NCc4ccc(F)c(F)c4)nc3n2C[C@@H]2CCCNC2)c(Cl)c1` [Example 5.3, (R)-3-chloro-4-(2-(3,4-difluorobenzylamino)-7-(piperidin-3-ylmethyl)-7H-pyrrolo[2,3-d]pyrimidin-6-yl)phenol]: over 8.00; `Fc1ccc(CNc2ncc3cc(-c4ccccc4Cl)n(C[C@H]4CCCNC4)c3n2)cc1F` [Example 4.1, (S)-6-(2-chlorophenyl)-N-(3,4-difluorobenzyl)-7-(piperidin-3-ylmethyl)-7H-pyrrolo[2,3-d]pyrimidin-2-amine]: 7.00 to 8.00; `Clc1cccc(Cl)c1-c1cc2cnc(NCc3ccccc3)nc2n1C[C@@H]1CCCNC1` [Example 2.6, (R)-N-benzyl-6-(2,6-dichlorophenyl)-7-(piperidin-3-ylmethyl)-7H-pyrrolo[2,3-d]pyrimidin-2-amine]: over 8.00.
For the compound `Oc1ccc(CNc2ncc3cc(-c4c(Cl)cccc4Cl)n(C[C@@H]4CCCNC4)c3n2)cc1F` [Example 6.2, (R)-4-((6-(2,6-dichlorophenyl)-7-(piperidin-3-ylmethyl)-7H-pyrrolo[2,3-d]pyrimidin-2-ylamino)methyl)-2-fluorophenol], the pIC50 is over 8.00.
Regarding `Cc1c(-c2ccccc2Cl)n(C[C@@H]2CCCNC2)c2nc(NCc3ccc(F)c(F)c3)ncc12` [Example 3.1, (R)-6-(2-chlorophenyl)-N-(3,4-difluorobenzyl)-5-methyl-7-(piperidin-3-ylmethyl)-7H-pyrrolo[2,3-d]pyrimidin-2-amine], the pIC50 is 7.00 to 8.00.
With `Fc1ccc(CNc2ncc3cc(-c4ccccc4Cl)n(CC4CNCCO4)c3n2)cc1F` (stereo not shown) [Example 4.4, 6-(2-chlorophenyl)-N-(3,4-difluorobenzyl)-7-(morpholin-2-ylmethyl)-7H-pyrrolo[2,3-d]pyrimidin-2-amine], the pIC50 was 7.00 to 8.00.
Consider `Oc1ccc(CNc2ncc3cc(-c4ccccc4Cl)n(C[C@@H]4CCCNC4)c3n2)cc1` [Example 1.2, (R)-4-((6-(2-chlorophenyl)-7-(piperidin-3-ylmethyl)-7H-pyrrolo[2,3-d]pyrimidin-2-ylamino)methyl)phenol], for which the pIC50 is 7.00 to 8.00.
Regarding `Cc1ccc(-c2cc3cnc(NCc4ccc(F)c(F)c4)nc3n2C[C@@H]2CCCNC2)c(Cl)c1` [Example 5.1, (R)-6-(2-chloro-4-methylphenyl)-N-(3,4-difluorobenzyl)-7-(piperidin-3-ylmethyl)-7H-pyrrolo[2,3-d]pyrimidin-2-amine], the pIC50 is over 8.00.
In the case of `N#Cc1c(-c2c(Cl)cccc2Cl)n(C[C@@H]2CCCNC2)c2nc(NCc3ccc(F)c(F)c3)ncc12` [Example 7.1, (R)-6-(2,6-dichlorophenyl)-2-(3,4-difluorobenzylamino)-7-(piperidin-3-ylmethyl)-7H-pyrrolo[2,3-d]pyrimidine-5-carbonitrile], the pIC50 is over 8.00.
`Oc1ccc(CNc2ncc3cc(-c4c(Cl)cccc4Cl)n(C[C@@H]4CCCNC4)c3n2)cc1` [Example 2.3, (R)-4-((6-(2,6-dichlorophenyl)-7-(piperidin-3-ylmethyl)-7H-pyrrolo[2,3-d]pyrimidin-2-ylamino)methyl)phenol]: the pIC50 was 5.00 to 7.00.
Turning to `Fc1cccc(CNc2ncc3cc(-c4c(Cl)cccc4Cl)n(C[C@@H]4CCCNC4)c3n2)c1` [Example 2.5, (R)-6-(2,6-dichlorophenyl)-N-(3-fluorobenzyl)-7-(piperidin-3-ylmethyl)-7H-pyrrolo[2,3-d]pyrimidin-2-amine], the pIC50 was over 8.00.
Next, `Fc1ccc(CNc2ncc3cc(-c4ccccc4Cl)n(C[C@@H]4CCNC4)c3n2)cc1F` [Example 4.2, (R)-6-(2-chlorophenyl)-N-(3,4-difluorobenzyl)-7-(pyrrolidin-3-ylmethyl)-7H-pyrrolo[2,3-d]pyrimidin-2-amine]: 5.00 to 7.00; `Cc1c(-c2c(Cl)cccc2Cl)n(C[C@@H]2CCCNC2)c2nc(NCc3ccc(F)c(F)c3)ncc12` [Example 3.2, (R)-6-(2,6-dichlorophenyl)-N-(3,4-difluorobenzyl)-5-methyl-7-(piperidin-3-ylmethyl)-7H-pyrrolo[2,3-d]pyrimidin-2-amine]: over 8.00.
On to `Fc1ccc(CNc2ncc3cc(-c4c(Cl)cccc4Cl)n(C[C@@H]4CCCNC4)c3n2)cc1F` [Example 2.2, (R)-6-(2,6-dichlorophenyl)-N-(3,4-difluorobenzyl)-7-(piperidin-3-ylmethyl)-7H-pyrrolo[2,3-d]pyrimidin-2-amine], for which the pIC50 is over 8.00.
Take `Fc1cc(Cl)c(-c2cc3cnc(NCc4ccc(F)c(F)c4)nc3n2C[C@@H]2CCCNC2)c(Cl)c1` [Example 5.5, (R)-6-(2,6-dichloro-4-fluorophenyl)-N-(3,4-difluorobenzyl)-7-(piperidin-3-ylmethyl)-7H-pyrrolo[2,3-d]pyrimidin-2-amine]: the pIC50 is over 8.00.
For the compound `Fc1ccc(CNc2ncc3cc(-c4c(Cl)cccc4Cl)n(C4CCCNCC4)c3n2)cc1F` (stereo not shown) [Example 8.2, 7-(Azepan-4-yl)-6-(2,6-dichlorophenyl)-N-(3,4-difluorobenzyl)-7H-pyrrolo[2,3-d]pyrimidin-2-amine], the pIC50 was over 8.00.
`Fc1ccc(CNc2ncc3cc(-c4ccc(Cl)cc4Cl)n(C[C@@H]4CCCNC4)c3n2)cc1F` [Example 5.4, (R)-6-(2,4-dichlorophenyl)-N-(3,4-difluorobenzyl)-7-(piperidin-3-ylmethyl)-7H-pyrrolo[2,3-d]pyrimidin-2-amine]: the pIC50 was 7.00 to 8.00.
Take `Oc1ccc(CNc2ncc3cc(-c4c(Cl)cccc4Cl)n(C[C@@H]4CCCNC4)c3n2)cc1Cl` [Example 6.1, (R)-2-chloro-4-((6-(2,6-dichlorophenyl)-7-(piperidin-3-ylmethyl)-7H-pyrrolo[2,3-d]pyrimidin-2-ylamino)methyl)phenol]: the pIC50 is over 8.00.
For the compound `COc1ccc(-c2cc3cnc(NCc4ccc(F)c(F)c4)nc3n2C[C@@H]2CCCNC2)c(Cl)c1` [Example 5.2, (R)-6-(2-chloro-4-methoxyphenyl)-N-(3,4-difluorobenzyl)-7-(piperidin-3-ylmethyl)-7H-pyrrolo[2,3-d]pyrimidin-2-amine], the pIC50 is 7.00 to 8.00.
Turning to `Fc1ccc(CNc2ncc3cc(-c4ccccc4Cl)n(C[C@@H]4CCCNC4)c3n2)cc1F` [Example 1.1, (R)-6-(2-chlorophenyl)-N-(3,4-difluorobenzyl)-7-(piperidin-3-ylmethyl)-7H-pyrrolo[2,3-d]pyrimidin-2-amine], the pIC50 is over 8.00.
Next, `Fc1ccc(CNc2ncc3cc(-c4c(Cl)cccc4Cl)n(CC4CNCCS4)c3n2)cc1F` (stereo not shown) [Example 8.1, 6-(2,6-Dichlorophenyl)-N-(3,4-difluorobenzyl)-7-(thiomorpholin-2-ylmethyl)-7H-pyrrolo[2,3-d]pyrimidin-2-amine]: over 8.00; `Oc1ccc(CNc2ncc3cc(-c4ccccc4Cl)n(C[C@@H]4CCCNC4)c3n2)cc1F` [Example 1.4, (R)-4-((6-(2-chlorophenyl)-7-(piperidin-3-ylmethyl)-7H-pyrrolo[2,3-d]pyrimidin-2-ylamino)methyl)-2-fluorophenol]: over 8.00.
`Fc1ccc(CNc2ncc3cc(-c4ccccc4Cl)n(C[C@H]4CCNC4)c3n2)cc1F` [Example 4.3, (S)-6-(2-chlorophenyl)-N-(3,4-difluorobenzyl)-7-(pyrrolidin-3-ylmethyl)-7H-pyrrolo[2,3-d]pyrimidin-2-amine]: the pIC50 was 7.00 to 8.00.
Consider `Oc1cccc(CNc2ncc3cc(-c4ccccc4Cl)n(C[C@@H]4CCCNC4)c3n2)c1` [Example 1.3, (R)-3-((6-(2-chlorophenyl)-7-(piperidin-3-ylmethyl)-7H-pyrrolo[2,3-d]pyrimidin-2-ylamino)methyl)phenol], for which the pIC50 is 7.00 to 8.00.
For `Oc1cccc(CNc2ncc3cc(-c4c(Cl)cccc4Cl)n(C[C@@H]4CCCNC4)c3n2)c1` [Example 2.1, (R)-3-((6-(2,6-dichlorophenyl)-7-(piperidin-3-ylmethyl)-7H-pyrrolo[2,3-d]pyrimidin-2-ylamino)methyl)phenol], the pIC50 is over 8.00.
